Tests used:
hTGR5 = molecular target: T1, hTGR5 (Homo sapiens, UniProt Q8TDU6); experiment: TGR5/CRE Luciferase Assay (hTGR5); assay type: cell-based; settings: for EC50: HEK 293 cells co-transfected with pCMV tag4b-TGR5h and pCRE TA-Luciferase, overnight incubation; for hTGR5 % trans: percentage of the 10 μM LCA value, HEK 293 cells transfected with hTGR5
T1 construct: expressed in transfected cells; host or cells: HEK293 cells, transiently co-transfected with the pCRE TA-Luciferase reporter
T1 sequence (Q8TDU6 1-330): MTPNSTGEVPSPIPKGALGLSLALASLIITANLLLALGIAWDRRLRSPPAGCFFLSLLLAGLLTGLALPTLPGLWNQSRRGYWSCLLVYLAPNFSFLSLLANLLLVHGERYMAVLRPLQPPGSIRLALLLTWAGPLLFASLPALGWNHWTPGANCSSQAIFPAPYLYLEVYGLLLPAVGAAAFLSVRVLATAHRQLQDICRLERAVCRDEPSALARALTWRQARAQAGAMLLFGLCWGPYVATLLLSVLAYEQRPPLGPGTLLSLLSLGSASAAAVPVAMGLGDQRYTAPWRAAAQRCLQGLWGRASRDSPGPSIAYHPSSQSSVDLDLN
Description: (§1) TGR5/CRE Luciferase Assay
(§2) In the following Tables TGR5 activation by compounds of the invention and subsequent increase in intracellular cAMP were evaluated using a luciferase reporter gene assay. Human embryonic kidney (HEK) 293 cells were transiently co-transfected with pCMV tag4b-TGR5 h (to follow hTGR5 activation) or pCMV AC6-TGR5m (to follow mTGR5 activation) expression plasmids and the pCRE TA-Luciferase reporter plasmid using the JET PEI reagent (Polyplus transfection). Transfected cells were seeded in 96-well plates and incubated overnight with the test compounds at increasing concentrations tested in duplicate. Lithocolic acid (LCA) at 10 μM was used as a positive reference compound. The cAMP-dependent luciferase expression was followed using the BrightGlo reagent according to the manufacturer (Promega) instructions. Luminescence was read with a Mithras plate reader (Berthold) or a Victor3™ V1420 (Perkin Elmer). […] Concentration-response curves were fitted by a nonlinear regression analysis to a 4 parameter logistic equation

mTGR5 = molecular target: T2, mTGR5 (Mus musculus, UniProt Q80SS6); experiment: TGR5/CRE Luciferase Assay (mTGR5); assay type: cell-based; settings: for mTGR5 % trans: percentage of the 10 μM LCA value, HEK 293 cells transfected with mTGR5; for EC50: HEK 293 cells co-transfected with pCMV AC6-TGR5m and pCRE TA-Luciferase, overnight incubation
T2 construct: expressed in transfected cells; host or cells: HEK293 cells, transiently co-transfected with the pCRE TA-Luciferase reporter
T2 sequence (Q80SS6 1-329): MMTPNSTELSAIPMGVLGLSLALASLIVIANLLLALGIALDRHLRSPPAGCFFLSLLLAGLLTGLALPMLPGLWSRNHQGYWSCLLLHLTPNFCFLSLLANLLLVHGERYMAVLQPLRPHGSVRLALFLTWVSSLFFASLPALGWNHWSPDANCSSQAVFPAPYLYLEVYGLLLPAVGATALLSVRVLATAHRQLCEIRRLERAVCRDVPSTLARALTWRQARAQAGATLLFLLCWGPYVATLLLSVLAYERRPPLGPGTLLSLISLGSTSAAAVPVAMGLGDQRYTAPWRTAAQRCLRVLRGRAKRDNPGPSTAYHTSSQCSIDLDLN
Description: as §1, §2

Row | EC50 (hTGR5) [nM] | hTGR5 % trans (hTGR5) [%] | mTGR5 % trans (mTGR5) [%] | EC50 (mTGR5) [nM] | SMILES
1 | 20 | – | – | – | COc1ccccc1COC(=O)C1=C(C)N(C[C@H]2CCCO2)C(=O)C[C@H]1c1ccc(Cl)cc1 (racemic) [Compound 67, (2-methoxyphenyl)methyl (4S)-4-(4-chlorophenyl)-6-methyl-2-oxo-1-[[(2R)-tetrahydrofuran-2-yl]methyl]-3,4-dihydropyridine-5-carboxylate]
2 | 1 | – | – | – | COc1ccccc1COC(=O)C1=C(C)N(C[C@H]2CCCO2)C(=O)C[C@H]1c1ccc(Cl)nc1 (racemic) [Example 148, (2-methoxyphenyl)methyl (4S)-4-(6-chloro-3-pyridyl)-6-methyl-2-oxo-1-[[(2R)-tetrahydrofuran-2-yl]methyl]-3,4-dihydropyridine-5-carboxylate and 2-methoxyphenyl)methyl (4R)-4-(6-chloro-3-pyridyl)-6-methyl-2-oxo-1-[[(2S)-tetrahydrofuran-2-yl]methyl]-3,4-dihydropyridine-5-carboxylate]
3 | 37 | 107 | – | – | COc1ccccc1COC(=O)C1=C(C)N(C[C@@H]2CCCO2)C(=O)C[C@H]1c1ccc(Cl)nc1 (racemic) [Example 159, (2-Methoxyphenyl)methyl-(4S)-4-(6-chloro-3-pyridyl)-6-methyl-2-oxo-1-[[(2S)-tetrahydrofuran-2-yl]methyl]-3,4-dihydropyridine-5-carboxylate and (2-methoxyphenyl)methyl-(4R)-4-(6-chloro-3-pyridyl)-6-methyl-2-oxo-1-[[(2R)-tetrahydrofuran-2-yl]methyl]-3,4-dihydropyridine-5-carboxylate]
4 | 12800 | – | – | – | COc1ccc(C2CC(=O)NC(C)=C2C(=O)OCc2ccccc2)cc1 (stereo not drawn) [Compound 6, 4-(4-Methoxy-phenyl)-2-methyl-6-oxo-1,4,5,6-tetrahydro-pyridine-3-carboxylic acid benzyl ester]
5 | – | – | 10 | – | CC1=C(C(=O)OCc2ccccc2)C(c2cccc(Cl)c2)CC(=O)N1 (stereo not drawn) [Compound 11, 4-(3-Chloro-phenyl)-2-methyl-6-oxo-1,4,5,6-tetrahydro-pyridine-3-carboxylic acid benzyl ester]
6 | – | – | 52 | 4500 | CC1=C(C(=O)OCc2ccccc2)C(c2ccc(Cl)cc2)CC(=O)N1 (stereo not drawn) [Compound 12, Benzyl 4-(4-chlorophenyl)-6-methyl-2-oxo-3,4-dihydro-1H-pyridine-5-carboxylate]
7 | 3900 | – | – | – | CC1=C(C(=O)OCc2ccccc2)C(c2ccc(Cl)cc2F)CC(=O)N1 (stereo not drawn) [Compound 15, benzyl 4-(4-chloro-2-fluoro-phenyl)-6-methyl-2-oxo-3,4-dihydro-1H-pyridine-5-carboxylate]
8 | – | – | 21 | 1700 | CC1=C(C(=O)OCc2ccccc2)C(c2ccc(Br)cc2)CC(=O)N1 (stereo not drawn) [Compound 16, benzyl 4-(4-bromophenyl)-6-methyl-2-oxo-3,4-dihydro-1H-pyridine-5-carboxylate]
9 | 1400 | 34 | – | – | CCC1=C(C(=O)OCc2ccccc2)C(c2ccc(Cl)cc2)CC(=O)N1C (stereo not drawn) [Compound 18, Benzyl 4-(4-chlorophenyl)-6-ethyl-1-methyl-2-oxo-3,4-dihydropyridine-5-carboxylate]
10 | – | – | 34 | 5800 | CN1C=C(C(=O)OCc2ccccc2)C(c2ccc(Cl)cc2)CC1=O (stereo not drawn) [Compound 24, Benzyl 4-(4-chlorophenyl)-1-methyl-2-oxo-3,4-dihydropyridine-5-carboxylate]
11 | – | – | 70 | 800 | CCN1C(=O)CC(c2ccc(Cl)cc2)C(C(=O)OCc2ccccc2)=C1C (stereo not drawn) [Compound 34, Benzyl 4-(4-chlorophenyl)-1-ethyl-6-methyl-2-oxo-3,4-dihydropyridine-5-carboxylate]
12 | – | – | 76 | 800 | CCCN1C(=O)CC(c2ccc(Cl)cc2)C(C(=O)OCc2ccccc2)=C1C (stereo not drawn) [Compound 35, Benzyl 4-(4-chlorophenyl)-6-methyl-2-oxo-1-propyl-3,4-dihydropyridine-5-carboxylate]
13 | 600 | 54 | – | – | CCCCN1C(=O)CC(c2ccc(Cl)cc2)C(C(=O)OCc2ccccc2)=C1C (stereo not drawn) [Compound 36, Benzyl 1-butyl-4-(4-chlorophenyl)-6-methyl-2-oxo-3,4-dihydropyridine-5-carboxylate]
14 | – | – | – | 300 | CC1=C(C(=O)OCc2ccccc2)C(c2ccc(Cl)cc2)CC(=O)N1CC1CC1 (stereo not drawn) [Compound 43, Benzyl 4-(4-chlorophenyl)-1-(cyclopropylmethyl)-6-methyl-2-oxo-3,4-dihydropyridine-5-carboxylate]
15 | – | – | 77 | 3600 | CC1=C(C(=O)OCc2ccccc2)C(c2ccc(Cl)cc2)CC(=O)N1CCN(C)C (stereo not drawn) [Compound 50, Benzyl 4-(4-chlorophenyl)-1-[2-(dimethylamino)ethyl]-6-methyl-2-oxo-3,4-dihydropyridine-5-carboxylate]
16 | – | – | – | 200 | COC(=O)CN1C(=O)CC(c2ccc(Cl)cc2)C(C(=O)OCc2ccccc2)=C1C (stereo not drawn) [Compound 57, Benzyl 4-(4-chlorophenyl)-1-(2-methoxy-2-oxo-ethyl)-6-methyl-2-oxo-3,4-dihydropyridine-5-carboxylate]
17 | 100 | – | – | – | COCCN1C(=O)CC(c2ccc(Cl)cc2)C(C(=O)OCc2ccccc2OC)=C1C (stereo not drawn) [Compound 64, (2-methoxyphenyl)methyl 4-(4-chlorophenyl)-1-(2-methoxyethyl)-6-methyl-2-oxo-3,4-dihydropyridine-5-carboxylate]
18 | – | – | 107 | 300 | COc1ccccc1COC(=O)C1=C(C)N(CCO)C(=O)CC1c1ccc(Cl)cc1 (stereo not drawn) [Compound 65, (2-methoxyphenyl)methyl 4-(4-chlorophenyl)-1-(2-hydroxyethyl)-6-methyl-2-oxo-3,4-dihydropyridine-5-carboxylate]
19 | – | – | 93 | 30 | COC(=O)CN1C(=O)CC(c2ccc(Cl)cc2)C(C(=O)OCc2ccccc2OC)=C1C (stereo not drawn) [Compound 73, (2-methoxyphenyl)methyl 4-(4-chlorophenyl)-1-(2-methoxy-2-oxo-ethyl)-6-methyl-2-oxo-3,4-dihydropyridine-5-carboxylate]
20 | – | – | 82 | 700 | COCCN1C(=O)CC(c2ccc(Cl)cc2)C(C(=O)OCc2cccc(F)c2)=C1C (stereo not drawn) [Example 85, (3-fluorophenyl)methyl 4-(4-chlorophenyl)-1-(2-methoxyethyl)-6-methyl-2-oxo-3,4-dihydropyridine-5-carboxylate]
21 | 500 | 67 | – | – | COCCN1C(=O)CC(c2ccc(Cl)cc2)C(C(=O)OCc2ccccc2Cl)=C1C (stereo not drawn) [Example 87, (2-chlorophenyl)methyl 4-(4-chlorophenyl)-1-(2-methoxyethyl)-6-methyl-2-oxo-3,4-dihydropyridine-5-carboxylate]
22 | – | – | – | 300 | COCCN1C(=O)CC(c2ccc(Cl)cc2)C(C(=O)OCc2ccc(C(F)(F)F)cc2)=C1C (stereo not drawn) [Example 92, [4-(trifluoromethyl)phenyl]methyl 4-(4-chlorophenyl)-1-(2-methoxyethyl)-6-methyl-2-oxo-3,4-dihydropyridine-5-carboxylate]
23 | – | – | – | 300 | COCCN1C(=O)CC(c2ccc(Cl)cc2)C(C(=O)OCc2cccc(C)c2)=C1C (stereo not drawn) [Example 99, m-tolylmethyl 4-(4-chlorophenyl)-1-(2-methoxyethyl)-6-methyl-2-oxo-3,4-dihydropyridine-5-carboxylate]
24 | 1100 | 55 | – | – | COCCN1C(=O)CC(c2ccc(Cl)cc2)C(C(=O)OCCCc2ccccc2)=C1C (stereo not drawn) [Example 111, 3-phenylpropyl 4-(4-chlorophenyl)-1-(2-methoxyethyl)-6-methyl-2-oxo-3,4-dihydropyridine-5-carboxylate]
25 | 1100 | 57 | – | – | COCCN1C(=O)CC(c2ccc(Cl)cc2)C(C(=O)OCC2CCCCC2)=C1C (stereo not drawn) [Example 113]
26 | 8 | 103 | – | – | COc1ccccc1COC(=O)C1=C(C)N(C[C@H]2CCCO2)C(=O)C[C@H]1c1ccc(Cl)cc1 [Example 167, (2-Methoxyphenyl)methyl-(4S)-4-(4-chlorophenyl)-6-methyl-2-oxo-1-[[(2R)-tetrahydrofuran-2-yl]methyl]-3,4-dihydropyridine-5-carboxylate]

Reference: US9932309B2, “2-oxo-3,4-dihydropyridine-5-carboxylates and their use” (UNIVERSITE DE LILLE 2 DROIT ET SANTE, priority 2014, dated 2018)
